Experiments:
Carboxypeptidase A = target: T1, Carboxypeptidase A (Bos taurus, UniProt P00730); assay: Carboxypeptidase A activity assay; type: biochemical; details: Ki class; compounds tested in 5% DMSO, 12 concentrations
T1 sequence (P00730 111-419): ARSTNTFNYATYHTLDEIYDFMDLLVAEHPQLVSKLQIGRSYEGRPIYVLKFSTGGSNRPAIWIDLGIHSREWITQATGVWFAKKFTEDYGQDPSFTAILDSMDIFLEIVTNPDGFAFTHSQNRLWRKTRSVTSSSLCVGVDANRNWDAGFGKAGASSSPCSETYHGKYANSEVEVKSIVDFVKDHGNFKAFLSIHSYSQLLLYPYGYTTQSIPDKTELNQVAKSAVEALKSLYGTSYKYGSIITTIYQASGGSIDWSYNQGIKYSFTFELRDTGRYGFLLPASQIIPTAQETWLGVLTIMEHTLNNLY
How it was run: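 Bovine carboxypeptidase A activity followed at 328 nm in 5% DMSO, reaction stopped with EDTA. Activity measured at 12 compound concentrations. Ki derived from apparent Ki as Ki=Kiapp/(1+[S]/Km).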

ACE-2 [1] = target: T2, ACE-2 (Homo sapiens, UniProt Q9BYF1); assay: ACE-2 Competitive Substrate Assay (ACS Assay); type: biochemical; details: Ki class; compounds tested in 5% DMSO, 12 concentrations; read-out: Human ACE-2 Activity
T2 construct: a stop codon inserted after the serine immediately preceding the transmembrane domain; made in house; host or cells: CHO K1 cells (transient transfection, purified from conditioned medium)
T2 sequence (Q9BYF1 18-740 limits assumed): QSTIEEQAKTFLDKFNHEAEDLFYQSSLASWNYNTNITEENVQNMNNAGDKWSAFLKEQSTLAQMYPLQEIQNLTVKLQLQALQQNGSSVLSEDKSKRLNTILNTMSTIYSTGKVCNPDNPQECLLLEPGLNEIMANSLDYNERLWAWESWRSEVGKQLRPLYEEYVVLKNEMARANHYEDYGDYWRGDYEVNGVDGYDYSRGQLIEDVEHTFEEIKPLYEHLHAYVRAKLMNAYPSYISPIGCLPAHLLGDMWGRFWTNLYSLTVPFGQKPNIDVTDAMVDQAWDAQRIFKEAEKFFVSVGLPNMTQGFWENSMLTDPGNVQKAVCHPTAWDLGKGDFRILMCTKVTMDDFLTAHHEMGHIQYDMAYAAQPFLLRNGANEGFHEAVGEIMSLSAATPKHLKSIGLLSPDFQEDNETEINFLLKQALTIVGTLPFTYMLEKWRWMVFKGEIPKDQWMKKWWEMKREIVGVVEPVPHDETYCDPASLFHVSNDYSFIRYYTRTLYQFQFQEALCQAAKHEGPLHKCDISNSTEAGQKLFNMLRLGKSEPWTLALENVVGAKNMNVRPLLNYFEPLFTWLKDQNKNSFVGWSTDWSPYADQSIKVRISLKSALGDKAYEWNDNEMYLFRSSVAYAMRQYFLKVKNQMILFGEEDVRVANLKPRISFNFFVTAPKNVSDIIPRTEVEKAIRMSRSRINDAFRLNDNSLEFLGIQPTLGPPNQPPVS

ACE (Sigma, A2580) = target: T3, ACE (Sigma, A2580) (Sus scrofa, UniProt F1RRW5); assay: ACE enzymatic activity assay; type: biochemical, porcine; details: Ki class; compounds tested in 5% DMSO, 12 concentrations
T3 construct: ACE from porcine kidney; purchased Sigma A2580; host or cells: porcine kidney
T3 sequence (F1RRW5 34-1309): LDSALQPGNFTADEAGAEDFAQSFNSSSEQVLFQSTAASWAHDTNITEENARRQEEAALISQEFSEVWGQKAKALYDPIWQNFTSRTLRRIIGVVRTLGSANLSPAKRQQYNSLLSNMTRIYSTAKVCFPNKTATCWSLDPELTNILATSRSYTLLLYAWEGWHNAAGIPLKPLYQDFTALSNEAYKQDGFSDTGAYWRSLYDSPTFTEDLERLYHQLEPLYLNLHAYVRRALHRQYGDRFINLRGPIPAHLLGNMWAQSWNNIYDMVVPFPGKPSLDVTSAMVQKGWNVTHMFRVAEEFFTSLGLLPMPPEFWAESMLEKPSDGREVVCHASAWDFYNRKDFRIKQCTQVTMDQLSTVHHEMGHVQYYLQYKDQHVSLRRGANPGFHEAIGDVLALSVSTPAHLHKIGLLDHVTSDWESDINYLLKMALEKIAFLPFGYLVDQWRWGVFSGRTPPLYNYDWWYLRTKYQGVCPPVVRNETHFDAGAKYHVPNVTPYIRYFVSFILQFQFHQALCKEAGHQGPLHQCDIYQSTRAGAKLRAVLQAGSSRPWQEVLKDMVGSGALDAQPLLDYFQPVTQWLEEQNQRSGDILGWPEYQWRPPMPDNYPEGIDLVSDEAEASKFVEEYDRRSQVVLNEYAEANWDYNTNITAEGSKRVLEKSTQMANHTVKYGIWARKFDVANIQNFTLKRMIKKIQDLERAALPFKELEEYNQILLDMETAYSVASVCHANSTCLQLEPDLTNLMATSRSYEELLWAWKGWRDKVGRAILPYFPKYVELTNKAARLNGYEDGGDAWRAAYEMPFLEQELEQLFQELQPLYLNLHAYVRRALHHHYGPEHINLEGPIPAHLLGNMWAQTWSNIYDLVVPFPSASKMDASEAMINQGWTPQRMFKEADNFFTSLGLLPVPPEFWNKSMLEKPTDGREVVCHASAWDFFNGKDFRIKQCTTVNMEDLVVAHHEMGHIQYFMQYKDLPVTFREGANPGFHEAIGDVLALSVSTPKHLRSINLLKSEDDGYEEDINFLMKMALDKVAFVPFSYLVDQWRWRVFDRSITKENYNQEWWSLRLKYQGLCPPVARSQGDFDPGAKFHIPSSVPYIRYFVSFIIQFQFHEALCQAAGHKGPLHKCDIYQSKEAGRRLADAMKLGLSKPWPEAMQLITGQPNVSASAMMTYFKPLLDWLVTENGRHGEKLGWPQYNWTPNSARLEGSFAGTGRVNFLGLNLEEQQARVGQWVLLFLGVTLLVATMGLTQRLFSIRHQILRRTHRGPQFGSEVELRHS
How it was run: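 ACE (1 nM final) in 50 mM HEPES, 300 mM NaCl, 0.01% Brij-35, pH 7.5, with compound in 5% DMSO at 12 concentrations, 25 °C. Substrate cleavage run ~30 min, stopped with EDTA; fluorescence read at excitation 320 nm, emission 405 nm.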

ACE-2 [2] = target: ACE-2 (Rattus norvegicus, UniProt Q5EGZ1); assay: ACE-2 Competitive Substrate Assay, rat ACE-2; type: biochemical; details: Ki class; compounds tested in 5% DMSO, 12 concentrations
Chain of ACE-2 (Rattus norvegicus, UniProt Q5EGZ1) (Q5EGZ1 18-805): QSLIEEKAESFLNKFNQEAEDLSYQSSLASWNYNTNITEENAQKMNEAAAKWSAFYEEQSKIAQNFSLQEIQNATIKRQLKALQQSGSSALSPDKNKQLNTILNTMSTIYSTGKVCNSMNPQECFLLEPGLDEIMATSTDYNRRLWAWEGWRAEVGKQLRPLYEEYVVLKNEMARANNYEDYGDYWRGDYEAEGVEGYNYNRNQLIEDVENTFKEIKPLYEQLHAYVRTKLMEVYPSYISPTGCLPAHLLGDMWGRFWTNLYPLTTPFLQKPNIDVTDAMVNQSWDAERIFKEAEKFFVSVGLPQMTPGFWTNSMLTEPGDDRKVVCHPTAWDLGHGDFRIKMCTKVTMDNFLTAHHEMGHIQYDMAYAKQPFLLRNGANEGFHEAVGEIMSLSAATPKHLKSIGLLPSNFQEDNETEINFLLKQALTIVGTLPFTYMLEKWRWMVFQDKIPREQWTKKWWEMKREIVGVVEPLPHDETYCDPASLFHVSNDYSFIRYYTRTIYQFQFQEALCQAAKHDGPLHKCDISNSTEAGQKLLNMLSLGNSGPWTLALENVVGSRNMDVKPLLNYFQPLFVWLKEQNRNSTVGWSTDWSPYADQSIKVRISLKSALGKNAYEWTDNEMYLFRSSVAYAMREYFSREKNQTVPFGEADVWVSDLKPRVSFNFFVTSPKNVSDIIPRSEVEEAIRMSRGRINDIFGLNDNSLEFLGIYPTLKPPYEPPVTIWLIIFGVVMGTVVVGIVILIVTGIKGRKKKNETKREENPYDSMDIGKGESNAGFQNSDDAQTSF
Method: ACE-2 enzymatic activity was assayed in microtitre plates by the following procedure. The ACE-2 assay buffer used contained 50 mM MES (Boehringer-Mannheim), 300 mM NaCl (Sigma) and 0.01% Brij-35 (Pierce Chemical Co.) at pH 6.5.
Reactions were mixed and incubated at 25° C.
The activity of the test compounds was investigated using the procedure outlined above. The compounds were tested in 5% DMSO. Enzyme activity was measured at 12 compound concentrations.

| Compound | Ki (Carboxypeptidase A) [nM] | Ki (ACE-2 [1]) [nM] | Ki (ACE (Sigma, A2580)) [nM] | Ki (ACE-2 [2]) [nM] |
| --- | --- | --- | --- | --- |
| CC(C)CC(N[C@@H](Cc1nc[nH]n1)C(=O)O)C(=O)O (stereo partly shown) [CD, 2-[1-Caboxy-2-(1H-[1,2,4]triazol-3-yl)-ethylamino]-4-methyl-pentanoic acid] | > 50000 | > 500 | > 50000 | 100 to 500 |
| CC(C)CC(N[C@H](Cc1nc[nH]n1)C(=O)O)C(=O)O (stereo partly shown) [CE, 2-[1-Carboxy-2-(1H-[1,2,4]triazol-3-yl)-ethylamino]-4-methyl-pentanoic acid] | > 50000 | > 500 | > 50000 | > 500 |
| CC(C)CC(NC(Cc1nccs1)C(=O)O)C(=O)O (stereo not shown) [CF, 2-(1-Carboxy-2-thiazol-2-yl-ethylamino)-4-methyl-pentanoic acid] | > 50000 | > 500 | > 50000 | 100 to 500 |
| CC(C)(C)C[C@H](N[C@@H](C(=O)O)c1ccccc1)C(=O)O [CJ, 2-[(Carboxy-phenyl-methyl)-amino]-4,4-dimethyl-pentanoic acid] | > 50000 | > 500 | > 50000 | > 500 |
| CC(C)(C)C[C@H](N[C@@H](CCc1ccccc1)C(=O)O)C(=O)O [CK, 2-(1-Carboxy-3-phenyl-propylamino)-4,4-dimethylpentanoic acid] | > 50000 | > 500 | > 50000 | 100 to 500 |
| O=C(O)[C@H](CCc1ccccc1)N[C@@H](CC1CC1)C(=O)O [CL, 2-(1-Carboxy-2-cyclopropyl-ethylamino)-4-phenyl-butync acid] | > 50000 | > 500 | > 50000 | 100 to 500 |
| CCCCCC[C@H](N[C@H](Cc1c[nH]cn1)C(=O)O)C(=O)O [CR, 2-[1-Carboxy-2-(1H-imidazol-4-yl)-ethylamino)octanoic acid] | > 50000 | > 500 | > 50000 | > 500 |
| CC(C)CC(N[C@H](Cc1cscn1)C(=O)O)C(=O)O (stereo partly shown) [CV, 2-(1-Carboxy-2-thiazol-4-yl-ethylamino)-4-methyl-pentanoic acid] | > 50000 | > 500 | > 50000 | > 500 |
| CC(C)(C)C[C@H](N[C@H](CCc1ccccc1)C(=O)O)C(=O)O [DD, 2-(1-Carboxy-3-phenyl-propylamino)-4,4-dimethylpentanoic acid] | > 50000 | > 500 | > 50000 | > 500 |
| O=C(O)[C@H](CC1CC1)N[C@H](CCc1ccccc1)C(=O)O [DE, 2-(1-Carboxy-2-cyclopropyl-ethylamino)-4-phenyl-butync acid] | > 50000 | > 500 | > 50000 | > 500 |
| COC(=O)[C@H](CC(C)C)NCC(=O)c1ccc(-c2ccccc2)cc1 [DH, 2-(2-Biphenyl-4-yl-2-oxo-ethylamino)-4-methyl-pentanoic acid methylester] | > 50000 | > 500 | > 50000 | > 500 |
| COC(=O)[C@H](CC(C)C)NCC(=O)[C@H](Cc1ccccc1)NC(=O)OCc1ccccc1 [DI, 2-(3-Benzyloxycarbonylamino-2-oxo-4-phenyl-butylamino)-4-methyl-pentanoic acid methylester] | 10000 to 50000 | > 500 | > 50000 | > 500 |
| O=C(O)C(CCc1ccccc1)N[C@@H](Cc1c[nH]cn1)C(=O)O (stereo partly shown) [DP, 2-[1-Carboxy-2-(1H-imidazol-4-yl)-ethylamino]4-phenyl-butync acid] | > 50000 | > 500 | 10000 to 50000 | 100 to 500 |
